Source: patent US12171229B2, “Heteroaryl-triazole and heteroaryl-tetrazole compounds as pesticides” (BAYER AKTIENGESELLSCHAFT, priority 2018, dated 2024)

Assays:
Format in all cases: in vivo
Boophilus microplus = Boophilus microplus injection test; details: 20 μg/animal injected into the abdomen, adult engorged female ticks, egg deposition after 7 days; for pest or weed control at 0.02 mg: Rhipicephalus microplus, 168 h, read-out: efficacy (infertile eggs)
Protocol: Boophilus Microplus—Injection Test Solvent: dimethyl sulfoxide To produce a suitable preparation of active compound, 10 mg of active compound are dissolved in 0.5 ml solvent, and the concentrate is diluted with solvent to the desired concentration. Five adult engorged female ticks (Boophilus microplus) are injected with 1 μl compound solution into the abdomen. The ticks are transferred into replica plates and incubated in a climate chamber. After 7 days egg deposition of fertile eggs is monitored. Eggs where fertility is not visible are stored in a climate chamber till hatching after about 42 days. An efficacy of 100% means all eggs are infertile; 0% means all eggs are fertile.

Diabrotica balteata = Diabrotica balteata spray test; details: after 7 days, larvae on wheat seeds; for pest or weed control at 80 µg/disc, 250 g/ha / pest or weed control at 160 µg/disc, 500 g/ha: Diabrotica balteata, in Triticum aestivum, 168 h, read-out: efficacy (seedlings grown up); for pest or weed control at 80 µg/disc, 250 g/ha: 80 μg/well (=250 g/ha)
Protocol: Diabrotica balteata—Spray Test [table] To produce a suitable preparation of active compound, 1 part by weight of active compound is mixed with the stated amount of solvent, and the concentrate is diluted with water, containing an emulsifier concentration of 1000 ppm, to the desired concentration. Further test concentrations are prepared by dilution with emulsifier containing water. Soaked wheat seeds (Triticum aestivum) are placed in a multiple well plate filled with agar and some water and are incubated for 1 day to germinate (5 seeds per well). The germinated wheat seeds are sprayed with a test solution containing the desired concentration of the active ingredient. Afterwards each unit is infected with 10-20 larvae of the banded cucumber beetle (Diabrotica balteata). After 7 days efficacy in % is determined. 100% means all the seedlings have grown up like in the untreated, uninfected control; 0% means none of the seedlings have grown.

Nezara viridula = Nezara viridula spray test; details: 96 h, after 4 days, larvae on barley plants
Protocol: Nezara viridula—Spray Test
To produce a suitable preparation of active compound, 1 part by weight of active compound is mixed with the stated amount of solvent, and the concentrate is diluted with water, containing an emulsifier concentration of 1000 ppm, to the desired concentration. Further test concentrations are prepared by dilution with emulsifier containing water.
Barley plants (Hordeum vulgare) infested with larvae of the southern green stink bug (Nezara viridula) are sprayed with a test solution containing the desired concentration of the active ingredient.
After 4 days mortality in % is determined. 100% means all the stink bugs have been killed: 0% means none of the stink bugs have been killed.

Ctenocephalides felis = Ctenocephalides felis oral test; details: 48 h, 100 ppm in cattle blood, after 2 days, adult unfed cat fleas
Protocol: Ctenocephalides Felis—Oral Test
Solvent: dimethyl sulfoxide
To produce a suitable preparation of active compound, 10 mg of active compound are dissolved in 0.5 ml solvent, and the concentrate is diluted with cattle blood to the desired concentration.
Approximately 20 adult unfed cat fleas (Ctenocephalides felis) are placed in flea chambers. The blood chamber, sealed with parafilm on the bottom, are filled with cattle blood supplied with compound solution and placed on the gauze covered top of the flea chamber, so that the fleas are able to suck the blood. The blood chamber is heated to 37° C. whereas the flea chamber is kept at room temperature.
After 2 days mortality in % is determined. 100% means all the fleas have been killed; 0% means none of the fleas have been killed.

Spodoptera frugiperda = Spodoptera frugiperda spray test; details: 168 h, after 7 days, larvae on maize leaf sections
Protocol: Spodoptera frugiperda—Spray Test
To produce a suitable preparation of active compound, 1 part by weight of active compound is mixed with the stated amount of solvents and is diluted with water, containing an emulsifier concentration of 1000 ppm, to the desired concentration. Further test concentrations are prepared by dilution with emulsifier containing water.
Maize (Zea mays) leaf sections are sprayed with a preparation of the active ingredient of the desired concentration. Once dry, the leaf sections are infested with fall armyworm larvae (Spodoptera frugiperda).
After 7 days mortality in % is determined. 100% means all caterpillars have been killed and 0% means none of the caterpillars have been killed.

| SMILES | pest or weed control at 80 µg/disc, 250 g/ha (Diabrotica balteata) [%] | mortality at 100 ppm (Ctenocephalides felis) [%] | mortality at 500 g/ha (Spodoptera frugiperda) [%] | pest or weed control at 160 µg/disc, 500 g/ha (Diabrotica balteata; 160 μg/well (=500 g/ha)) [%] | further results |
| --- | --- | --- | --- | --- | --- |
| C[C@H](NC(=O)c1cc(Cl)cc(C(F)(F)F)c1)c1ncnn1C1CCS(=O)(=O)C1 (single isomer, unassigned) [Example I-025] |  |  |  |  | efficacy (infertile eggs) (Boophilus microplus): 100%; efficacy (seedlings grown up) (Diabrotica balteata; 160 μg/well (=500 g/ha)): 80% |
| COc1cc(C(=O)N[C@@H](C)c2ncnn2-c2ncc(F)cc2F)cc(C(F)(F)F)c1 [Example I-102] | 100 |  |  |  | mortality at 500 g/ha (Nezara viridula): 100% |
| COc1cc(C(=O)N[C@@H](C)c2ncnn2-c2ccc(C#N)cn2)cc(C(F)(F)F)c1 [Example I-092] | 100 | 100 | 100 | 100 | mortality at 500 g/ha (Nezara viridula): 90%; mortality at 100 g/ha (Spodoptera frugiperda): 100% |
| C[C@H](NC(=O)c1cc(Cl)cc(OC(F)(F)F)c1)c1ncnn1-c1ccc(NC(=O)C2(Cl)CC2)cn1 [Example I-113] |  |  | 100 | 80 | mortality at 500 g/ha (Nezara viridula): 100%; mortality at 100 g/ha (Spodoptera frugiperda): 80% |
| COc1cc(C(=O)N[C@@H](C)c2ncnn2-c2nccs2)cc(C(F)(F)F)c1 [Example I-093] | 100 | 100 | 100 | 100 | mortality at 500 g/ha (Nezara viridula): 100% |
| CC[C@H](NC(=O)c1cc(Cl)cc(OC(F)(F)F)c1)c1ncnn1-c1ccc(NC(C)=O)cn1 [Example I-095] |  | 100 |  |  |  |
| CC[C@H](NC(=O)c1cc(Cl)cc(OC(F)(F)F)c1)c1ncnn1-c1ccc(NC(=O)C2CC2)cn1 [Example I-096] | 100 | 100 |  | 100 |  |
| C[C@H](NC(=O)c1cc(Cl)cc(C(F)(F)F)c1)c1ncnn1-c1ccc(-n2ccnc2)cn1 [Example I-086] | 100 | 100 | 83 |  |  |
| CC[C@H](NC(=O)c1cc(C(F)(F)F)cc(C(F)(F)F)c1)c1ncnn1-c1ccc(C#N)cn1 [Example I-068] | 100 |  | 100 | 100 | pest or weed control at 0.02 mg (Boophilus microplus): 100%; mortality at 100 g/ha (Spodoptera frugiperda): 100% |
| C[C@H](NC(=O)c1cc(Cl)cc(C(F)(F)F)c1)c1ncnn1-c1nnc(C(F)(F)F)s1 [Example I-017] |  |  |  |  | pest or weed control at 0.02 mg (Boophilus microplus): 90% |
| C[C@H](NC(=O)c1cc(Cl)cc(C(F)(F)F)c1)c1ncnn1-c1ncc(Cl)s1 [Example I-090] | 100 | 100 | 100 | 100 | mortality at 500 g/ha (Nezara viridula): 100%; mortality at 100 g/ha (Spodoptera frugiperda): 100% |
| C[C@H](NC(=O)c1cc(Cl)cc(C(F)(F)F)c1)c1ncnn1-c1cccc(C#N)n1 [Example I-055] |  |  |  |  | pest or weed control at 0.02 mg (Boophilus microplus): 100% |
| C[C@H](NC(=O)c1cc(F)cc(C(F)(F)F)c1)c1ncnn1-c1nc2ccccc2o1 [Example I-058] |  | 100 |  |  | pest or weed control at 0.02 mg (Boophilus microplus): 100% |
| CC(c1ncnn1-c1cnc2ccccc2n1)N(CC1CC1)C(=O)c1cc(Cl)cc(C(F)(F)F)c1 (stereo not drawn) [Example I-004] |  |  |  | 100 |  |
| CC(NC(=O)c1cc(Cl)cc(C(F)(F)F)c1)c1ncnn1C1=NCCS1 (stereo not drawn) [Example I-075] | 100 | 100 |  | 100 |  |
| C[C@H](NC(=O)c1cc(Cl)cc(C(F)(F)F)c1)c1ncnn1-c1nnc(-c2ccc(F)cc2)s1 [Example I-023] |  |  |  |  | mortality at 100 g/ha (Nezara viridula; 100 g/ha): 100% |
| C[C@H](NC(=O)c1cc(Cl)cc(Cl)c1)c1ncnn1-c1nccs1 [Example I-108] |  |  | 83 | 100 |  |
| C[C@H](NC(=O)c1cc(Cl)cc(C(F)(F)F)c1)c1ncnn1-c1ccc(-n2cncn2)cn1 [Example I-087] |  |  | 100 |  | mortality at 100 g/ha (Spodoptera frugiperda): 100% |
| C[C@H](NC(=O)c1cc(Cl)cc(C(F)(F)F)c1)c1ncnn1-c1ccc(OC(F)F)cn1 [Example I-029] | 100 |  | 100 | 100 | mortality at 500 g/ha (Nezara viridula): 100%; mortality at 100 g/ha (Spodoptera frugiperda): 100% |
| C[C@H](NC(=O)c1cc(Cl)cc(C(F)(F)F)c1)c1ncnn1-c1nc(C(F)F)c(Cl)s1 [Example I-022] | 100 |  | 83 | 100 | pest or weed control at 0.02 mg (Boophilus microplus): 100% |
| C[C@H](NC(=O)c1cc(Cl)cc(C(F)(F)F)c1)c1ncnn1-c1ccc(OCC(F)(F)C(F)(F)F)cn1 [Example I-060] | 80 | 100 | 100 |  | mortality at 100 g/ha (Spodoptera frugiperda): 100% |
| C[C@H](NC(=O)c1cc(Cl)cc(C(F)(F)F)c1)c1ncnn1-c1cccc(S(C)(=O)=O)n1 [Example I-064] |  |  |  |  | pest or weed control at 0.02 mg (Boophilus microplus): 80% |
| C[C@H](NC(=O)c1cc(Cl)cc(C(F)(F)F)c1)c1ncnn1-c1cccc(OCC(F)(F)F)n1 [Example I-059] |  |  |  | 100 |  |
| CC(C)C(=S)Nc1ccc(-n2ncnc2[C@H](C)NC(=O)c2cc(Cl)cc(C(F)(F)F)c2)nc1 [Example I-099] | 100 | 100 | 100 | 100 |  |
| COC(=O)c1ccc(-n2ncnc2[C@H](C)NC(=O)c2cc(Cl)cc(C(F)(F)F)c2)nc1 [Example I-031] |  |  |  | 100 | pest or weed control at 0.02 mg (Boophilus microplus): 100% |
| C[C@H](NC(=O)c1cc(Cl)cc(C(F)(F)F)c1)c1ncnn1-c1ccc(NC(=S)CC2CC2)cn1 [Example I-097] | 100 | 100 | 100 | 100 |  |
| C[C@H](NC(=O)c1cc(Cl)cc(C(F)(F)F)c1)c1ncnn1-c1nc(-c2ccccc2F)cs1 [Example I-043] |  |  |  | 100 |  |
| C[C@H](NC(=O)c1cc(Cl)cc(C(F)(F)F)c1)c1ncnn1-c1nc(C(F)(F)F)cs1 [Example I-084] | 100 |  |  | 100 |  |
